# In patent US12428405B2, “Chalcone-based chemotherapeutic compound for triple negative breast cancer” (QATAR UNIVERSITY, priority 2019, dated 2025):
# Like-named read-outs stand apart in the source and are kept apart here.
# Key:
# [1] = test system: MDA-MB-231; experiment: Cell cycle analysis (flow cytometry); type: cell-based; conditions: 10 μM, 48 hours post treatment; N=1
# Experimental: The MDA-MB-231, MDA-MB-468 and MCF-7 cell lines were seeded on 6-well plates at a concentration of 200,000 cells per well and were maintained in culture supplemented with 10% fetal bovine serum for 8-10 hours. The same day, media was removed and cells were incubated overnight with serum free media. Second day, cells were treated with the compounds. Adherent and floating cell populations were harvested at 48 hours after treatment with different concentrations of the compounds and counted.
# Afterward, cells were washed with cold PBS once, centrifuged at 4° C. and fixed with 1.5 ml cold 70% ethanol added drop wise while slowly vortexing. Samples were then stored at […] Following fixation, cells were pelleted and washed with ice-cold PBS. Equal aliquots were collected and resuspended in 300 μl of Tali® Cell Cycle Kit and incubated at 37 C. with slow shaking speed for 30 minutes in the dark. Accuri C6 flow cytometer (BD Biosciences, USA) was used to analyze the cells. The FlowJo V10 software was used to process and evaluate the results.
# [2] = test system: MDA-MB-231; experiment: Migration (wound healing) assay; type: cell-based; conditions: for activity at 5 µM: read-out: % migration; for IC50: 24 hours of treatment, 5 concentrations, two independent experiments, read-out: Migratory IC50 MDA-MB-231
# Experimental: MDA-MB-231 cells were seeded in 12-wells plates at a concentration of 500,000 cells/well and were incubated in complete RPMI culture medium until covering the well and reaching around 90-100% confluency. Following, cells were serum starved for 4 hours and a 200 μl pipette tip was used to create the scratch followed by cell washing with PBS twice. […] Microscopic pictures were then taken, and cell migration was quantified based on the wound diameter at 24 hours minus the initial diameter at time zero, as represented by the following equation: % Migration=[…]
# [3] = test system: MDA-MB-231; experiment: Soft agar colony formation assay; type: cell-based; conditions: MDA-MB-231; soft agar
# [4] = test system: MDA-MB-468; experiment: Soft agar colony formation assay; type: cell-based; conditions: MDA-MB-468; soft agar
# [5] = test system: MCF-7; experiment: Soft agar colony formation assay; type: cell-based; conditions: MCF-7; soft agar
# [6] = test system: Epithelial Mesenchymal Transition (EMT) markers in MDA-MB-231 cells; experiment: Western blot of EMT markers; type: cell-based; conditions: cell line not named in the sentence (FIG. 3.24, FIG. 3.25)
# Experimental: Proteins were quantified with the Pierce BCA Protein Assay Kit (Thermo Scientific, USA) following cell lysis. SDS-PAGE was prepared at a concentration of 10% for all studied proteins. All samples were loaded at 40 μg per 1.5 mm 15 wells comb. Running of stained samples was performed using two steps gel electrophoresis (60 Volts for 20 minutes followed by 120 Volts for 1 hour). Afterwards, gels were transferred into PVDF membrane at 100 Voltage for 1.5-2.0 hours using wet transfer. Following transfer, PVDF membranes were blocked with 5% skimmed milk and washed three times. Primary antibodies (Table 2.2) were prepared, then PVDF membrane were incubated with them overnight with gentle shaking at 4° C. Afterwards, membranes were washed three times and incubated with their respective secondary antibodies for 1-2 hours with gentle shaking at room temperature. Pierce™ ECL Western Blotting Substrate was used to detect proteins by chemiluminescence. Blots were imaged using the ibrightCL1000 imaging system.
# [7] = test system: Chorioallantoic membrane (CAM) of the chicken embryos; experiment: Chorioallantoic membrane (CAM) angiogenesis assay; type: in vivo; conditions: treated at embryonic day 4, read at day 8; 2 μl of 5 mM stock under coverslip
# Experimental: Fertilized white Leghorn chicken embryos (Arab Qatari for Poultry Production, Qatar) were purchased and incubated at 60% humidity at 37° C. in MultiQuip incubator. Ethics approval was obtained from Qatar University-Institutional Bio-safety committee. The embryos were treated in ovo at embryonic day 4 with three of the synthesized chalcones (5, 13 and 14) compared to DMSO treated controls. Briefly, a small cut was made at the top of the shells of the eggs and each treatment was added under a round coverslip at 2 μl of 5 mM stock solutions. Microscopic pictures were taken at embryonic day 8. Embryos treated with compounds 13 and 14 were sacrificed at embryonic day 9 for clinical observations. Quantification of blood vessels was performed manually and the different treatment groups were compared.
# [8] = Homo sapiens, MDA-MB-231, 5 μM, 24 hours post treatment, control = 100, Mean ± SEM (N = 2 × 2)
structure (smiles),measurement,setting,value
"CS(=O)(=O)c1ccc(C(=O)/C=C/c2ccc(N3CCCC3)cc2)cc1 [Compound 2, (E)-1-(4-(methylsulfonyl)phenyl)-3-(4-(pyrrolidin-1-yl)phenyl) prop-2-en-1-one]",cell cycle shifts (in words),[1],slight S phase arrest
same,activity at 5 µM,[2]; [8],67.3 ± 53.9%
"O=C(/C=C/c1ccc(N2CCCC2)cc1)c1ccc2c(c1)OCO2 [Compound 10, (E)-1-(benzo[d][1,3]dioxol-5-yl)-3-(4-(pyrrolidin-1-yl)phenyl)prop-2-en-1-one]",activity at 5 µM,[2]; [8],53.5 ± 5.98%
same,IC50,"[2]; Homo sapiens, MDA-MB-231",4800 ± 720 nM
"CS(=O)(=O)c1ccc(C(=O)/C=C/c2ccc(N3CCCCC3)cc2)cc1 [Compound 4, (E)-1-(4-(methylsulfonyl)phenyl)-3-(4-(piperidin-1-yl)phenyl) prop-2-en-1-one]",activity at 5 µM,[2]; [8],70.7 ± 55.9%
"CSc1ccc(C(=O)/C=C/c2ccc(N3CCCCC3)cc2)cc1 [Compound 6, (E)-1-(4-(methylthio)phenyl)-3-(4-(piperidin-1-yl)phenyl) prop-2-en-1-one]",activity at 5 µM,[2]; [8],69.5 ± 3.92%
"COc1cccc(C(=O)/C=C/c2ccc(N3CCCC3)cc2)c1 [Compound 8, (E)-1-(3-methoxyphenyl)-3-(4-(pyrrolidin-1-yl)phenyl) prop-2-en-1-one]",activity at 5 µM,[2]; [8],48.7 ± 2.85%
same,IC50,"[2]; Homo sapiens, MDA-MB-231",3000 ± 460 nM
"O=C(/C=C/c1ccc(N2CCOCC2)cc1)c1ccc(N2CCNCC2)cc1 [Compound 11, (E)-3-(4-morpholinophenyl)-1-(4-(piperazin-1-yl)phenyl) prop-2-en-1-one]",activity at 5 µM,[2]; [8],75.1 ± 0.86%
"CSc1ccc(C(=O)/C=C/c2ccc(N3CCCC3)cc2)cc1 [Compound 7, (E)-1-(4-(methylthio)phenyl)-3-(4-(pyrrolidin-1-yl)phenyl) prop-2-en-1-one]",activity at 5 µM,[2]; [8],71.8 ± 0.06%
"COc1ccccc1C(=O)/C=C/c1ccc(N(CCCl)CCCl)cc1 [Compound 12, (E)-3-(4-(Bis(2-chloroethyl)amino)phenyl)-1-(2-methoxyphenyl) prop-2-en-1-one]",IC50,[2],1990 ± 190 nM
same,IC50,"[2]; Homo sapiens, MDA-MB-231, 24 h",2000 ± 188 nM
same,activity at 5 µM,[2]; [8],32.8 ± 0.68%
"COc1cc2c(c(OC)c1OC)-c1ccc(OC)c(=O)cc1[C@@H](NC(C)=O)CC2 [Colchicine, reference compound]",colony formation (in words),[3],significantly inhibited the ability of cells to form colonies
same,colony formation (in words),[4],significantly inhibited the ability of cells to form colonies
same,colony formation (in words),[5],significantly inhibited the ability of cells to form colonies
same,activity at 5 µM,"[2]; Homo sapiens, MDA-MB-231, 24 h",47.45 ± 0.25%
same,expression of β-catenin and its phosphorylated form,[6],upregulated phospho-3-catenin
"O=C(/C=C/c1ccc(N2CCCC2)cc1)c1cccc(Cl)c1 [Compound 1, (E)-1-(3-chlorophenyl)-3-(4-(pyrrolidin-1-yl)phenyl) prop-2-en-1-one]",activity at 5 µM,[2]; [8],74.7 ± 5.8%
"COc1cccc(C(=O)/C=C/c2ccc(N3CCCCC3)cc2)c1 [Compound 9, (E)-1-(3-methoxyphenyl)-3-(4-(piperidin-1-yl)phenyl)prop-2-en-1-one]",cell cycle shifts (in words),[1],no major cell cycle shifts
same,activity at 5 µM,[2]; [8],75 ± 0.86%
"CS(=O)(=O)c1ccc(C(=O)/C=C/c2ccc(N3CCOCC3)cc2)cc1 [Compound 3, (E)-1-(4-(methylsulfonyl)phenyl)-3-(4-morpholinophenyl) prop-2-en-1-one]",activity at 5 µM,[2]; [8],65.7 ± 52.4%
"CSc1ccc(C(=O)/C=C/c2ccc(N3CCOCC3)cc2)cc1 [Compound 5, (E)-1-(4-(methylthio)phenyl)-3-(4-morpholinophenyl) prop-2-en-1-one]",cell cycle shifts (in words),[1],no major cell cycle shifts
same,activity at 5 µM,[2]; [8],64.3 ± 3.32%
same,IC50,"[2]; Homo sapiens, MDA-MB-231",6140 ± 620 nM
same,inhibition of blood vessels development vs control,[7],68.49±4.42%
"CC(=O)O[C@H]1C(=O)[C@@]2(C)[C@H]([C@H](OC(=O)c3ccccc3)[C@]3(O)C[C@H](OC(=O)[C@H](O)[C@@H](NC(=O)c4ccccc4)c4ccccc4)C(C)=C1C3(C)C)[C@]1(OC(C)=O)CO[C@@H]1C[C@@H]2O [Paclitaxel, reference compound]",colony formation (in words),[3],significantly inhibited the ability of cells to form colonies
same,colony formation (in words),[4],significantly inhibited the ability of cells to form colonies
same,colony formation (in words),[5],significantly inhibited the ability of cells to form colonies
same,activity at 5 µM,[2]; [8],39.3 ± 5.16%
same,IC50,"[2]; Homo sapiens, MDA-MB-231",2010 ± 220 nM
